Laboratory results: PubChem BioAssay (NCI)
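Grown in 96-well plates, cells were treated for 48 hours with each compound at five concentrations. Insufficient inhibition: endpoint recorded as highest concentration tested. TGI marks complete inhibition of growth.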

Experiments:
Test in all cases: NCI tumour cell line growth inhibition, 48 h
HT29 colon = system: HT29 colon
HOP-92 NSCLC = system: HOP-92 NSCLC
EKVX NSCLC = system: EKVX NSCLC
HCC-2998 colon = system: HCC-2998 colon
OVCAR-4 ovarian = system: OVCAR-4 ovarian
RXF-631 renal = system: RXF-631 renal
HCT-15 colon = system: HCT-15 colon
NCI-H522 lung = system: NCI-H522 lung
M19-MEL melanoma = system: M19-MEL melanoma
SF-539 CNS = system: SF-539 CNS
SNB-19 CNS = system: SNB-19 CNS
OVCAR-3 ovarian = system: OVCAR-3 ovarian
SF-295 CNS = system: SF-295 CNS
HCT-116 colon = system: HCT-116 colon
SK-MEL-5 melanoma = system: SK-MEL-5 melanoma
K-562 leukemia = system: K-562 leukemia
CAKI-1 renal = system: CAKI-1 renal
ACHN renal = system: ACHN renal
UACC-62 melanoma = system: UACC-62 melanoma
SK-MEL-2 melanoma = system: SK-MEL-2 melanoma
NCI-H226 lung = system: NCI-H226 lung
SK-MEL-28 melanoma = system: SK-MEL-28 melanoma
SW-620 colon = system: SW-620 colon
A498 renal = system: A498 renal
DMS 273 small cell lung = system: DMS 273 small cell lung
UACC-257 melanoma = system: UACC-257 melanoma
M14 melanoma = system: M14 melanoma
NCI-H23 lung = system: NCI-H23 lung
XF 498 CNS = system: XF 498 CNS
OVCAR-8 ovarian = system: OVCAR-8 ovarian
RXF 393 renal = system: RXF 393 renal
786-0 renal = system: 786-0 renal
TK-10 renal = system: TK-10 renal
KM20L2 colon = system: KM20L2 colon
LXFL 529 NSCLC = system: LXFL 529 NSCLC
SK-OV-3 ovarian = system: SK-OV-3 ovarian
U251 CNS = system: U251 CNS
NCI-H460 lung = system: NCI-H460 lung
SNB-75 CNS = system: SNB-75 CNS
SF-268 CNS = system: SF-268 CNS
SNB-78 CNS = system: SNB-78 CNS
HL-60(TB) leukemia = system: HL-60(TB) leukemia
DMS 114 small cell lung = system: DMS 114 small cell lung
KM12 colon = system: KM12 colon
OVCAR-5 ovarian = system: OVCAR-5 ovarian
COLO 205 colon = system: COLO 205 colon
SN12C renal = system: SN12C renal
RPMI-8226 leukemia = system: RPMI-8226 leukemia
MOLT-4 leukemia = system: MOLT-4 leukemia
HOP-62 NSCLC = system: HOP-62 NSCLC
MALME-3M melanoma = system: MALME-3M melanoma
A549 NSCLC = system: A549 NSCLC
IGROV1 ovarian = system: IGROV1 ovarian
CCRF-CEM leukemia = system: CCRF-CEM leukemia
LOX IMVI melanoma = system: LOX IMVI melanoma
UO-31 renal = system: UO-31 renal
DLD-1 colon = system: DLD-1 colon

`COC(=O)C1=C(C(=O)OC)C2(CCCCCC2=O)OC1=O` (centres undefined) gave a TGI (HT29 colon) greater than 100 µM, a TGI (HOP-92 NSCLC) greater than 100 µM and a TGI (EKVX NSCLC) greater than 100 µM. For the same molecule, the TGI (HCC-2998 colon) was greater than 100 µM, the TGI (OVCAR-4 ovarian) was greater than 100 µM and the TGI (RXF-631 renal) was greater than 100 µM. It also gave a TGI (HCT-15 colon) greater than 100 µM, a TGI (NCI-H522 lung) greater than 100 µM and a TGI (M19-MEL melanoma) greater than 100 µM. It also gave a TGI (SF-539 CNS) greater than 100 µM, a TGI (SNB-19 CNS) greater than 100 µM and a TGI (OVCAR-3 ovarian) greater than 100 µM. It also gave a TGI (SF-295 CNS) greater than 100 µM, a TGI (HCT-116 colon) greater than 100 µM and a TGI (SK-MEL-5 melanoma) greater than 100 µM. It also gave a TGI (K-562 leukemia) greater than 100 µM, a TGI (CAKI-1 renal) greater than 100 µM and a TGI (ACHN renal) greater than 100 µM. The TGI (UACC-62 melanoma) was greater than 100 µM, the TGI (SK-MEL-2 melanoma) was greater than 100 µM and the TGI (NCI-H226 lung) was greater than 100 µM. For the same molecule, the TGI (SK-MEL-28 melanoma) was greater than 100 µM, the TGI (SW-620 colon) was greater than 100 µM and the TGI (A498 renal) was greater than 100 µM. The TGI (DMS 273 small cell lung) was greater than 100 µM, the TGI (UACC-257 melanoma) was greater than 100 µM and the TGI (M14 melanoma) was greater than 100 µM. For the same molecule, the TGI (NCI-H23 lung) was greater than 100 µM, the TGI (XF 498 CNS) was greater than 100 µM and the TGI (OVCAR-8 ovarian) was greater than 100 µM. For the same molecule, the TGI (RXF 393 renal) was greater than 100 µM, the TGI (786-0 renal) was greater than 100 µM and the TGI (TK-10 renal) was greater than 100 µM. For the same molecule, the TGI (KM20L2 colon) was greater than 100 µM, the TGI (LXFL 529 NSCLC) was greater than 100 µM and the TGI (SK-OV-3 ovarian) was greater than 100 µM. For the same molecule, the TGI (U251 CNS) was greater than 100 µM, the TGI (NCI-H460 lung) was greater than 100 µM and the TGI (SNB-75 CNS) was greater than 100 µM. It also gave a TGI (SF-268 CNS) greater than 100 µM, a TGI (SNB-78 CNS) greater than 100 µM and a TGI (HL-60(TB) leukemia) greater than 100 µM. It also gave a TGI (DMS 114 small cell lung) greater than 100 µM, a TGI (KM12 colon) greater than 100 µM and a TGI (OVCAR-5 ovarian) greater than 100 µM. It also gave a TGI (COLO 205 colon) greater than 100 µM, a TGI (SN12C renal) greater than 100 µM and a TGI (RPMI-8226 leukemia) greater than 100 µM. For the same molecule, the TGI (MOLT-4 leukemia) was greater than 100 µM, the TGI (HOP-62 NSCLC) was greater than 100 µM and the TGI (MALME-3M melanoma) was greater than 100 µM. The TGI (A549 NSCLC) was greater than 100 µM, the TGI (IGROV1 ovarian) was greater than 100 µM and the TGI (CCRF-CEM leukemia) was greater than 100 µM.

With `COc1ccc(OC)c2[nH]c(Sc3c([N+](=O)[O-])ncn3C)nc12` the TGI (HT29 colon) was greater than 100 µM, the TGI (HOP-92 NSCLC) was 44.4 µM and the TGI (EKVX NSCLC) was 51.2 µM. For the same molecule, the TGI (HCC-2998 colon) was 38.4 µM, the TGI (OVCAR-4 ovarian) was 64.7 µM and the TGI (RXF-631 renal) was 35.9 µM. The TGI (HCT-15 colon) was 38.8 µM, the TGI (M19-MEL melanoma) was 50.2 µM and the TGI (SF-539 CNS) was 34.2 µM. It also gave a TGI (OVCAR-3 ovarian) of 45.6 µM, a TGI (SF-295 CNS) greater than 100 µM and a TGI (HCT-116 colon) of 51.6 µM. The TGI (SK-MEL-5 melanoma) was 35.4 µM, the TGI (CAKI-1 renal) was 42.6 µM and the TGI (ACHN renal) was greater than 100 µM. It also gave a TGI (UACC-62 melanoma) of 34.1 µM, a TGI (NCI-H226 lung) of 47.4 µM and a TGI (SK-MEL-28 melanoma) of 54.6 µM. The TGI (SW-620 colon) was greater than 100 µM, the TGI (A498 renal) was 97.3 µM and the TGI (DMS 273 small cell lung) was 41.3 µM. The TGI (UACC-257 melanoma) was 30.1 µM, the TGI (M14 melanoma) was 88.3 µM and the TGI (LOX IMVI melanoma) was greater than 100 µM. The TGI (NCI-H23 lung) was 51.9 µM, the TGI (XF 498 CNS) was 43.5 µM and the TGI (OVCAR-8 ovarian) was 50.1 µM. The TGI (RXF 393 renal) was 60.1 µM, the TGI (786-0 renal) was greater than 100 µM and the TGI (TK-10 renal) was 61.6 µM. For the same molecule, the TGI (KM20L2 colon) was 60.6 µM, the TGI (LXFL 529 NSCLC) was 27.3 µM and the TGI (SK-OV-3 ovarian) was greater than 100 µM. For the same molecule, the TGI (U251 CNS) was greater than 100 µM, the TGI (NCI-H460 lung) was greater than 100 µM and the TGI (SNB-75 CNS) was greater than 100 µM. For the same molecule, the TGI (SF-268 CNS) was 68.6 µM, the TGI (SNB-78 CNS) was greater than 100 µM and the TGI (UO-31 renal) was 93.5 µM. For the same molecule, the TGI (DMS 114 small cell lung) was 35.1 µM, the TGI (KM12 colon) was greater than 100 µM and the TGI (OVCAR-5 ovarian) was greater than 100 µM. For the same molecule, the TGI (COLO 205 colon) was 26.6 µM, the TGI (SN12C renal) was 37.8 µM and the TGI (DLD-1 colon) was 48.8 µM. It also gave a TGI (HOP-62 NSCLC) greater than 100 µM, a TGI (MALME-3M melanoma) of 29.3 µM and a TGI (A549 NSCLC) greater than 100 µM. For the same molecule, the TGI (IGROV1 ovarian) was 85.7 µM.

In the case of `S=C(Nc1ccccc1)Nc1ccccc1SC(/C=C/NNC1=NC(c2ccccc2)C(c2ccccc2)=NN1)c1ccccc1` (centres undefined), the TGI (HT29 colon) was greater than 100 µM, the TGI (HOP-92 NSCLC) was 84.2 µM and the TGI (EKVX NSCLC) was greater than 100 µM. For the same molecule, the TGI (HCC-2998 colon) was greater than 100 µM, the TGI (OVCAR-4 ovarian) was greater than 100 µM and the TGI (RXF-631 renal) was greater than 100 µM. For the same molecule, the TGI (HCT-15 colon) was greater than 100 µM, the TGI (NCI-H522 lung) was greater than 100 µM and the TGI (M19-MEL melanoma) was greater than 100 µM. For the same molecule, the TGI (SF-539 CNS) was greater than 100 µM, the TGI (SNB-19 CNS) was greater than 100 µM and the TGI (OVCAR-3 ovarian) was greater than 100 µM. The TGI (SF-295 CNS) was greater than 100 µM, the TGI (HCT-116 colon) was greater than 100 µM and the TGI (SK-MEL-5 melanoma) was greater than 100 µM. The TGI (K-562 leukemia) was greater than 100 µM, the TGI (CAKI-1 renal) was greater than 100 µM and the TGI (ACHN renal) was greater than 100 µM. The TGI (UACC-62 melanoma) was greater than 100 µM, the TGI (SK-MEL-2 melanoma) was greater than 100 µM and the TGI (SK-MEL-28 melanoma) was greater than 100 µM. For the same molecule, the TGI (SW-620 colon) was greater than 100 µM, the TGI (A498 renal) was greater than 100 µM and the TGI (DMS 273 small cell lung) was greater than 100 µM. The TGI (M14 melanoma) was greater than 100 µM, the TGI (LOX IMVI melanoma) was greater than 100 µM and the TGI (XF 498 CNS) was greater than 100 µM. For the same molecule, the TGI (OVCAR-8 ovarian) was greater than 100 µM, the TGI (RXF 393 renal) was 44.6 µM and the TGI (786-0 renal) was greater than 100 µM. The TGI (TK-10 renal) was greater than 100 µM, the TGI (KM20L2 colon) was greater than 100 µM and the TGI (SK-OV-3 ovarian) was greater than 100 µM. The TGI (U251 CNS) was greater than 100 µM, the TGI (NCI-H460 lung) was greater than 100 µM and the TGI (SF-268 CNS) was greater than 100 µM. For the same molecule, the TGI (SNB-78 CNS) was greater than 100 µM, the TGI (HL-60(TB) leukemia) was greater than 100 µM and the TGI (DMS 114 small cell lung) was greater than 100 µM. It also gave a TGI (KM12 colon) greater than 100 µM, a TGI (OVCAR-5 ovarian) greater than 100 µM and a TGI (COLO 205 colon) greater than 100 µM. The TGI (SN12C renal) was greater than 100 µM, the TGI (RPMI-8226 leukemia) was greater than 100 µM and the TGI (MOLT-4 leukemia) was greater than 100 µM. For the same molecule, the TGI (DLD-1 colon) was greater than 100 µM, the TGI (HOP-62 NSCLC) was 64.5 µM and the TGI (MALME-3M melanoma) was greater than 100 µM. For the same molecule, the TGI (A549 NSCLC) was greater than 100 µM, the TGI (IGROV1 ovarian) was greater than 100 µM and the TGI (CCRF-CEM leukemia) was greater than 100 µM.
